Results published in PubChem BioAssay AID256 (DTP/NCI, 2004).
Values joined by “and” are separate entries in the source; they are usually repeats but may differ in a detail not shown here. Equal values may be shown once. Toxic doses and inconclusive results are not listed.

Test system: CD2F1 mice, L1210 leukemia ip, survival T/C
Test: NCI In Vivo Anticancer Drug Screen. Data for tumor model L1210 Leukemia (intraperitoneal) in CD2F1 (CDF1) mice
Conditions: endpoint: mean survival time, higher = longer survival
Procedure, shortened: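 Transplantable tumor in mice; compound-treated vs vehicle-treated groups. Read-out = treated/control ratio of the measured endpoint.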

[1] = dose: 100.0 mg/kg/injection, schedule: Q01DX001 (ip), vehicle: saline with Tween-80
[2] = dose: 200.0 mg/kg/injection, schedule: Q01DX001 (ip), vehicle: saline with Tween-80
[3] = dose: 400.0 mg/kg/injection, schedule: Q01DX001 (ip), vehicle: saline with Tween-80

## OCCN1CCN(CCCN2c3ccccc3Sc3ccc(C(F)(F)F)cc32)CC1
dose: 1.49 mg/kg/injection, schedule: Q01DX009 (ip), vehicle: saline
  T/C: 110 % of control
dose: 2.27 mg/kg/injection, schedule: Q01DX009 (ip), vehicle: saline
  T/C: 113 % of control
dose: 3.4 mg/kg/injection, schedule: Q01DX009 (ip), vehicle: saline
  T/C: 121 % of control
dose: 5.0 mg/kg/injection, schedule: Q04DX003 (ip), vehicle: saline
  T/C: 116 % of control
dose: 6.6 mg/kg/injection, schedule: Q04DX003 (ip), vehicle: saline sonified
  T/C: 100 % of control
dose: 6.6 mg/kg/injection, schedule: Q04DX003 (ip), vehicle: saline
  T/C: 108 % of control
dose: 10.0 mg/kg/injection, schedule: Q04DX003 (ip), vehicle: saline sonified
  T/C: 101 % of control
dose: 10.0 mg/kg/injection, schedule: Q04DX003 (ip), vehicle: saline
  T/C: 116 % of control
dose: 15.0 mg/kg/injection, schedule: Q04DX003 (ip), vehicle: saline
  T/C: 114 % of control and 94 % of control
dose: 20.0 mg/kg/injection, schedule: Q04DX003 (ip), vehicle: saline
  T/C: 106 % of control
dose: 30.0 mg/kg/injection, schedule: Q04DX003 (ip), vehicle: saline
  T/C: 75 % of control

## O=c1ccn(C2OC(CO)C(O)C2C[N+](=O)[O-])c(=O)[nH]1 (stereo not drawn)
dose: 12.5 mg/kg/injection, schedule: Q01DX005 (ip), vehicle: water
  T/C: 96 % of control
dose: 25.0 mg/kg/injection, schedule: Q01DX005 (ip), vehicle: water
  T/C: 97 % of control
dose: 50.0 mg/kg/injection, schedule: Q01DX005 (ip), vehicle: water
  T/C: 94 % of control
dose: 100.0 mg/kg/injection, schedule: Q01DX005 (ip), vehicle: water
  T/C: 91 % of control
dose: 200.0 mg/kg/injection, schedule: Q01DX005 (ip), vehicle: water
  T/C: 88 % of control

## O=c1ccn(Cc2ccc([N+](=O)[O-])cc2)c(=O)[nH]1
[1]
  T/C: 94 % of control
[2]
  T/C: 90 % of control
[3]
  T/C: 98 % of control

## CC(C)(CO)C(O)C(=O)NCCS(=O)(=O)c1ccc(F)cc1 (stereo not drawn)
[1]
  T/C: 105 % of control
dose: 100.0 mg/kg/injection, schedule: Q01DX009 (ip), vehicle: saline with Tween-80
  T/C: 89 % of control
[2]
  T/C: 95 % of control
dose: 200.0 mg/kg/injection, schedule: Q01DX009 (ip), vehicle: saline with Tween-80
  T/C: 89 % of control
[3]
  T/C: 100 % of control

## Cc1ccc(/C=C(/F)OC(C)(C)C)cc1
dose: 50.0 mg/kg/injection, schedule: Q01DX001 (ip), vehicle: saline with Tween-80
  T/C: 97 % of control
[1]
  T/C: 101 % of control
[2]
  T/C: 100 % of control

## CC1(C)C2CCC1(CS(=O)(=O)O)C(=O)C2.[Ag] (stereo not drawn)
dose: 100.0 mg/kg/injection, schedule: Q04DX003 (ip), vehicle: acetone
  T/C: 96 % of control

## C=C[Si](C)(C=C)C=C
dose: 100.0 mg/kg/injection, schedule: Q01DX009 (ip), vehicle: saline
  T/C: 95 % of control
dose: 100.0 mg/kg/injection, schedule: Q04DX002 (ip), vehicle: saline
  T/C: 91 % of control
dose: 200.0 mg/kg/injection, schedule: Q01DX009 (ip), vehicle: saline
  T/C: 97 % of control
dose: 200.0 mg/kg/injection, schedule: Q04DX002 (ip), vehicle: saline
  T/C: 98 % of control
dose: 400.0 mg/kg/injection, schedule: Q01DX009 (ip), vehicle: saline
  T/C: 93 % of control
dose: 400.0 mg/kg/injection, schedule: Q04DX002 (ip), vehicle: saline
  T/C: 98 % of control

## O=C(/C(Br)=C/c1ccccc1[N+](=O)[O-])c1ccccc1
[1]
  T/C: 98 % of control
[2]
  T/C: 95 % of control
[3]
  T/C: 98 % of control

## COC(=O)c1ccc(C2CCC(OC(c3ccccc3)c3ccccc3)CC2)cc1 (stereo not drawn)
dose: 200.0 mg/kg/injection, schedule: Q04DX003 (ip), vehicle: saline with Tween-80
  T/C: 89 % of control
dose: 400.0 mg/kg/injection, schedule: Q04DX003 (ip), vehicle: saline with Tween-80
  T/C: 91 % of control

## CC1(C)OCC(CO)(Nc2nc(N3CC3)nc(N3CC3)n2)CO1
dose: 0.31 mg/kg/injection, schedule: Q01DX009 (ip), vehicle: saline
  T/C: 111 % of control
dose: 0.62 mg/kg/injection, schedule: Q01DX009 (ip), vehicle: saline
  T/C: 117 % of control and 112 % of control
dose: 1.25 mg/kg/injection, schedule: Q01DX009 (ip), vehicle: saline
  T/C: 194 % of control
dose: 2.5 mg/kg/injection, schedule: Q01DX009 (ip), vehicle: saline
  T/C: 186 % of control and 221 % of control and 104 % of control

## Cc1c2cc[n+](CCN3CCCCC3)cc2c(C)c2c1[nH]c1ccc(O)cc12
dose: 1.56 mg/kg/injection, schedule: Q01DX009 (ip), vehicle: suspension in saline
  T/C: 160 % of control
dose: 12.5 mg/kg/injection, schedule: Q01DX009 (ip), vehicle: saline
  T/C: 150 % of control
dose: 12.5 mg/kg/injection, schedule: Q01DX009 (ip), vehicle: suspension in saline
  T/C: 121 % of control
dose: 50.0 mg/kg/injection, schedule: Q01DX009 (ip), vehicle: saline
  T/C: 188 % of control
dose: 50.0 mg/kg/injection, schedule: Q01DX009 (ip), vehicle: suspension in saline
  T/C: 92 % of control
